# Patent US20140243396A1, “METHOD OF TREATING MUCOEPIDERMOID CARCINOMA” (DANA-FARBER CANCER INSTITUTE, INC., priority 2011, published 2014)
# Assays:
# [1] = tested on: H292 and H3118 cells; test: MTS proliferation assay; format: cell-based; settings: Homo sapiens, NCI-H292, 120 h, MTS assay on day 5 of treatment, read-out: IC50, cell growth
# Procedure: FIG. 6 illustrates PI3-kinase signaling contributes to MEC cell growth. A. Effects of PI3-kinase inhibitor LY-294002 or Compound A on MEC cell growth. […] The same blot was stripped and probed with anti-AKT or anti-V.-actin antibody. Image was cropped and auto-leveled by Photoshop. A representative of three independent experiments. (Right) MEC cell growth was measured by MTS assay on day 5 of LY-294002 or Compound A treatment. Points: mean, bars: SD (n=3). B. Effects of knock-down of PI3-kinase α or β on MEC cell growth. […] cell lysates were prepared on day 5 post-transduction. Image was cropped and auto-leveled by Photoshop. […] Cell numbers were counted by trypan blue exclusion on day 5 posttransduction. […] SD (n=3). **p<0.01, ***p<0.001 compared to control cells. C. […] Cell numbers were counted by trypan blue exclusion on day 5, Columns: mean, bars: SD (n=3). The Methods were described previously (Chen et al. […] On day 5 post infection, cells were counted by trypan blue exclusion. MTS proliferation assay (Promega, Madison, Wis.): 1-2×10^3 cells were treated with LY-294002, Compound A or DMSO in the concentration as indicated in FIG. 6A. MTS activities were measured on day 5. […] DNA amount was measured by flow cytometry analysis (BD FACScans). […] Cell viability was measured using the Annexin-V-FLUOS Staining Kit (Roche Diagnostics, Indianapolis, Ind.) by flow cytometry analysis (BD FACScans).
# [2] = tested on: H292 and H3118 cells; test: Cell growth, cell count by trypan blue exclusion; format: cell-based
# Procedure: (§1) FIG. 2 illustrates inhibition of PDE4B by pharmacological inhibitor rolipram plus forskolin prevents cell growth, causes cell cycle arrest and induces apoptosis in fusion positive MEC cells. Rolipram (R), forskolin (FK), Rolipram plus forskolin (R+FK) or DMSO. Columns: mean, bars: SD (n>3), *p<0.05, **p<0.01, ***p<0.001, compared to HSY cell growth. B. 1×10^5 cells were treated with 50 μM R plus 20 μM FK or DMSO for 24 hours. C. 1×10^5 cells were treated with 50 μM rolipram plus 20 μM forskolin with or DMSO for 48 hours. Apoptosis assay was performed by PI and Annexin-V staining and analyzed by flow cytometry. Columns: mean, bars: SD (n=3). *p<0.05, compared with DMSO treated cells.
# FIG. 6 illustrates PI3-kinase signaling contributes to MEC cell growth. A. Effects of PI3-kinase inhibitor LY-294002 or Compound A on MEC cell growth. […] The same blot was stripped and probed with anti-AKT or anti-V.-actin antibody. Image was cropped and auto-leveled by Photoshop. A representative of three independent experiments. (Right) MEC cell growth was measured by MTS assay on day 5 of LY-294002 or Compound A treatment. Points: mean, bars: SD (n=3). B. Effects of knock-down of PI3-kinase α or β on MEC cell growth. […] H3118 cell lysates were prepared on day 5 post-transduction. Image was cropped and auto-leveled by Photoshop. (Lower) Effects of knock-down of PI3-kinase α or β on MEC cell growth. 1×10^5 cells were transduced twice with lenti-viruses harboring shRNAs targeting PI3-K α, β or scramble control. Cell numbers were counted by trypan blue exclusion on day 5 posttransduction. Cell growth of scramble control virus infected cells was set to 100%, Columns: mean, bars: SD (n=3). **p<0.01, ***p<0.001 compared to control cells. C. Effects of Compound A in combination of rolipram plus forskolin on of MEC cell growth. 1×10^5 cells were treated with the combination of inhibitors listed. Cell numbers were counted by trypan blue exclusion on day 5, Columns: mean, bars: SD (n=3).
# (§2) The Methods were described previously (Chen et al. Genes Cancer, 1:822-835 (2010)). Cell growth: 1-2×10^5 cells were infected with lenti-virus harboring specific shRNAs. On day 5 post infection, cells were counted by trypan blue exclusion. MTS proliferation assay (Promega, Madison, Wis.): 1-2×10^3 cells were treated with LY-294002, Compound A or DMSO in the concentration as indicated in FIG. 6A. MTS activities were measured on day 5. Cell cycle analysis: 1×10^5 cells were treated with inhibitors or infected with viruses. DNA amount was measured by flow cytometry analysis (BD FACScans). Apoptosis assay: 1×10^5 cells were treated with inhibitors or infected with virus. Cell viability was measured using the Annexin-V-FLUOS Staining Kit (Roche Diagnostics, Indianapolis, Ind.) by flow cytometry analysis (BD FACScans).
# [3] = tested on: H292 cells; test: Cell growth, cell count by trypan blue exclusion; format: cell-based; settings: PDE4B knock-down, day 5 post-transduction, compared to scramble control
# Procedure: (§3) FIG. 3 illustrates knock-down of PDE4B inhibits fusion positive MEC cell growth, causes cell cycle arrest and induces apoptosis. A. H3118 cell lysate was prepared on day 5 post-transduction and subjected to western blot analysis. Image was cropped and auto-leveled by Photoshop. A representative of three independent experiments. B. 1×10^5 MEC cells were infected twice by shRNA No. 1 and No. 2 and cell number was count on day 5 post-transduction by trypan blue exclusion. Columns: mean, bars: SD (n>3). *p<0.05, **p<0.01, compared with scramble control virus infected cell growth. C. 1×10^5 cells were infected twice by shRNA No. 2. Cell cycle was determined by PI staining followed by FACS analysis on day 5 post-transduction, n=3. D. 1×10^5 cells were infected twice by shRNA No. 2. Apoptosis assay was performed by PI and Annexin-V staining and analyzed by flow cytometry on day 5 post-transduction, Columns: mean, bars: SD (n=3). *p<0.05, compared with control cells.
# as §2
# [4] = tested on: H3118 cells; test: Cell growth, cell count by trypan blue exclusion; format: cell-based; settings: PDE4B knock-down, day 5 post-transduction, compared to scramble control
# Procedure: as §3, §2
# [5] = tested on: HSY cells; test: Cell growth, cell count by trypan blue exclusion; format: cell-based
# Procedure: as §1, §3, §2
# [6] = tested on: H292 cells; test: Cell cycle analysis by flow cytometry; format: cell-based; settings: PDE4B knock-down, day 5 post-transduction; scramble control 50%
# Procedure: as §1, §3
# (§4) The Methods were described previously (Chen et al. Genes Cancer, 1:822-835 (2010)). […] On day 5 post infection, cells were counted by trypan blue exclusion. […] MTS activities were measured on day 5. […] DNA amount was measured by flow cytometry analysis (BD FACScans). […] Cell viability was measured using the Annexin-V-FLUOS Staining Kit (Roche Diagnostics, Indianapolis, Ind.) by flow cytometry analysis (BD FACScans).
# [7] = tested on: H3118 cells; test: Cell cycle analysis by flow cytometry; format: cell-based; settings: PDE4B knock-down, day 5 post-transduction; scramble control 57%
# Procedure: as §1, §3, §4
# [8] = tested on: HSY cells; test: Cell cycle analysis by flow cytometry; format: cell-based; settings: PDE4B knock-down
# Procedure: as §1, §3, §4
# [9] = tested on: H292 and H3118 cells; test: Apoptosis assay, PI and Annexin-V staining; format: cell-based; settings: PDE4B knock-down, day 5 post-transduction
# Procedure: as §1
# (§5) FIG. 3 illustrates knock-down of PDE4B inhibits fusion positive MEC cell growth, causes cell cycle arrest and induces apoptosis. […] Cell cycle was determined by PI staining followed by FACS analysis on day 5 post-transduction, n=3. […] Apoptosis assay was performed by PI and Annexin-V staining and analyzed by flow cytometry on day 5 post-transduction, Columns: mean, bars: SD (n=3). *p<0.05, compared with control cells.
# (§6) The Methods were described previously (Chen et al. Genes Cancer, 1:822-835 (2010)). […] On day 5 post infection, cells were counted by trypan blue exclusion. […] MTS activities were measured on day 5. […] DNA amount was measured by flow cytometry analysis (BD FACScans). […]
# [10] = tested on: HSY cells; test: Apoptosis assay, PI and Annexin-V staining; format: cell-based; settings: PDE4B knock-down, day 5 post-transduction
# Procedure: as §1, §5, §6
# [11] = tested on: H3118 cells; test: In vivo murine xenograft model; parameters: species or system SCID hairless (SHO) mice
# Description: FIG. 4 illustrates knock-down of PDE4B inhibited MEC cell growth in vivo. A. Tumor volume in SCID hairless mice. Points: mean of 5 tumors, bars: SD (n=5). ***p<0.001, compared to control tumor. B. Representative picture of the tumors dissected from the mice after sacrifice on day 30. Five pair (shPDE4B vs. scramble control) of tumors was shown (n=5). C. Tumor weight from SCID hairless mice. Tumors were weighted on day 30 at sacrifice. Columns: mean, bars: SD (n=5). ***p<0.001, compared to control tumor weight. D. RT-qPCR analysis of PDE4B expression from the tumor biopsies. Columns: mean, bars: SD (n=3). ***p<0.001, compared to control tumor.
# Mice were maintained and treated in accordance with institutional guidelines of Dana Farber Cancer Institute Animal Resource Facilities. H3118 cells were infected twice with shPDE4B-2 or scramble control virus. On day three post-transduction, 5×10^6 shPDE4B cells were injected subcutaneously (s.c.) into one flank of a SCID hairless (SHO) mice (Charles River Laboratories International, Inc., Wilmington, Mass.) and 5×10^6 control cells were injected into the opposite flank (Dubrovska et al., Proc Natl Acad Sci USA, 2009, 106: 268-273; Serra et al. Cancer Res, 2008, 68: 8022-8030). A total of five mice were used. The tumor volume was measured every two days starting from day 10, volume=(length×width2)×(π/6). Mice were sacrificed on day 30. The tumors were excised and the weight was measured.
# [12] = tested on: PDE4B; test: PDE4B expression in cells (qPCR); format: cell-based; settings: vs shLUC
# Procedure: FIG. 1 illustrates identification of CRTC1-MAML2 Target genes. […] RT-qPCR experiments were performed in triplicates. Columns: mean, bars: SD (n=3). *p<0.05, compared with expression from shLUC infected cells (Student t test). B Inhibition of CRTC1-MAML2 inhibited H3118 and H292 cell growth. Columns: mean, bars: SD (n=3). *p<0.05, **p<0.01, ***p<0.001, compared with shLUC. […] Columns: mean, bars: SD (n=3). […] Image was cropped and auto-leveled by Photoshop. A representative of three independent experiments.
# Total RNA was isolated by the Trizol method (Invitrogen). qPCR was performed using ABI PRISM 7500 sequence detector (Applied Biosystems, Foster City, Calif.) by SYBR method (Applied Biosystems). The SYBR method uses SYBR Green I dye, which is a highly specific, double-stranded DNA binding dye, to detect PCR product as it accumulates during PCR cycles. All samples were amplified in triplicates. The relative change of transcript amount was normalized with the GAPDH mRNA expression levels (20).
# [13] = tested on: H3118 cells; test: Microarray gene expression after CRTC1-MAML2 knock-down; format: cell-based
# Procedure: H3118 or HSY cells were transduced twice with retro-virus harboring shLUC or sh#D. GFP-positive cells were sorted 48 hours post-transduction. Total RNA was extracted using Trizol reagents (Invitrogen) and purified by RNAeasy Mini Column (QIAGEN). Hybridization with Affymetrix U133A plus—2 microarray chips was performed and analyzed at Dana-Farber Cancer Institute Microarray Core. The d-Chip analysis software was used for the analysis; Li, C. and Wong, W. H. Proc. Natl. Acad. Sci. USA […]. Genes with three fold expression changes in H3118 cells were considered significant (n=3, p<=0.05).
# [14] = retroviral shRNA, fusion-positive H292 and H3118 cells, compared to shLUC
# [15] = retroviral shRNA, fusion-negative HSY cells, compared to shLUC
compound,measurement,setting,value
"Cn1c(=O)n(-c2ccc(C(C)(C)C#N)cc2)c2c3cc(-c4cnc5ccccc5c4)ccc3ncc21 [Compound A, 2-methyl-2-[4-(3-methyl-2-oxo-8-quinolin-3-yl-2,3-dihydroimidazo[4,5-c]quinolin-1-yl)-phenyl]propionitrile]",IC50,[1],0.006 to 0.02 µM
same,effect on MEC cell growth when combined with rolipram and forskolin,"[2]; MEC cells, cell count by trypan blue exclusion on day 5",additive effect
O=c1cc(N2CCOCC2)oc2c(-c3ccccc3)cccc12 [LY-294002],IC50,[1],4 to 10 µM
"COc1ccc(C2CNC(=O)C2)cc1OC1CCCC1 (stereo not shown) [rolipram, 4-(3-cyclopentyloxy-4-methoxyphenyl)pyrrolidin-2-one]",cell growth (in words),"[2]; inhibitor treatment, MEC cells",not changed
"shRNA #1: shRNA lenti-viral construct targeting PDE4B, SEQ ID NO 1 (CCGGGCTTGAGTAAATCCTACAGTTCTCGAGAACTGTAGGATTTACTCAAGCTTTTTG)",growth inhibition,[3],74%
same,growth inhibition,[4],83%
same,cell growth (in words),"[5]; HSY cells, PDE4B knock-down",slight growth reduction
"shRNA #2: shRNA lenti-viral construct targeting PDE4B, SEQ ID NO 2 (CCGGGCGCAGAGAGTCATTTCTCTACTCGAGTAGAGAAATGACTCTCTGCGCTTTTTG)",growth inhibition,[3],74%
same,growth inhibition,[4],83%
same,cell growth (in words),"[5]; HSY cells, PDE4B knock-down",slight growth reduction
same,cells arrested at G0/G1 phase,[6],78%
same,cells arrested at G0/G1 phase,[7],79%
same,cell cycle arrest (in words),[8],much less effect
same,apoptosis (in words),[9],significant apoptosis
same,apoptosis (in words),[10],no significant effect
same,tumor growth in vivo (in words),"[11]; H3118 cells with PDE4B knock-down vs control cells, s.c., tumor volume every two days",significantly slower
same,repression of PDE4B expression in tumor biopsies,"[11]; RT-qPCR, compared to controls",71%
same,"average tumor weight, less than controls",[11]; day 30 at sacrifice,88%
"shRNA #A: small hairpin RNA targeting the MAML2 moiety of CRTC1-MAML2, GTAATCAACCTAACACATA, SEQ ID NO 3",cell growth (in words),[2]; [14],significantly inhibited cell growth
same,cell growth (in words),[5]; [15],no significant effect
same,PDE4B expression (in words),[12]; H3118 and H292 cells,significantly inhibited PDE4B expression
same,PDE4B expression (in words),[12]; fusion negative HSY cells,not
"shRNA #D: small hairpin RNA targeting the MAML2 moiety of CRTC1-MAML2, GACAGAGCCTGGTAATGAT, SEQ ID NO 4",cell growth (in words),[2]; [14],significantly inhibited cell growth
same,cell growth (in words),[5]; [15],no significant effect
same,PDE4B expression (in words),[12]; H3118 and H292 cells,significantly inhibited PDE4B expression
same,PDE4B expression (in words),[12]; fusion negative HSY cells,not
same,"PDE4B expression, down-regulation",[13]; CRTC1-MAML2 depletion,17 fold
same,"HES2 expression, up-regulation",[13]; CRTC1-MAML2 knock-down vs luciferase knock-down,7 fold
